The record followed here is ChEMBL document CHEMBL4004845, “Synthesis and trypanocidal activity of a library of 4-substituted 2-(1H-pyrrolo[3,2-c]pyridin-2-yl)propan-2-ols” (Eur J Med Chem, 2017).

For orientation: EC50 means the concentration needed to bring the measured effect to its halfway point. The low end stands for higher potency in that assay, the high end for lower potency in that assay. For orientation: Emax means the greatest response seen or fitted, relative to the assay's reference. Usually pEC50 stands for −log10 of the EC50, conventionally taken in molar units. High values mean a small EC50, low ones a large EC50.

For data set [1], the system named is Trypanosoma cruzi. Briefly: Antitrypanosomal activity against Trypanosoma cruzi Y amastigote forms infected in human U2OS cells after 96 hrs by Draq5 staining-based high content analysis. In kind it is functional, cell-based.
Data set [2] is described as follows: Selectivity index, ratio of CC50 for human U2OS cells to EC50 for Trypanosoma cruzi Y amastigote forms infected in human U2OS cells. It counts as toxicity, cell-based. As to conditions: read-out: Ratio CC50/EC50.
Data set [3] relates to Trypanosoma cruzi. Briefly: Antitrypanosomal activity against Trypanosoma cruzi Y amastigote forms infected in human U2OS cells after 96 hrs by Draq5 staining-based high content analysis relative to control. In kind it is functional.
A short description of data set [4]: Cytotoxicity against human HepG2 cells after 48 hrs by Cell Titer Glo assay. In kind it is cell-based. Particulars: read-out: pTC50 (converted). Background: In ATP-based viability assays light output follows the ATP content of the culture.
For data set [5], the system named is Trypanosoma brucei brucei. Briefly: Antitrypanosomal activity against Trypanosoma brucei brucei Lister 427 at 18 hrs post dose by resazurin-based assay. It counts as functional. As to conditions: Lister 427, 18 h. Background: Resazurin is reduced to fluorescent resorufin, in cell work by metabolically active cells.
Data set [6] deals with Trypanosoma brucei brucei. Briefly: Antitrypanosomal activity against Trypanosoma brucei brucei Lister 427 at 70 hrs post dose by resazurin-based assay. It counts as functional.
Data set [7] is described as follows: Cytotoxicity against human U2OS cells. In kind it is cell-based.

Where only a bound is given, the exact number is not on record here.

Molecule `O=C(Cn1ccnc1[N+](=O)[O-])NCc1ccccc1` [BENZNIDAZOLE] registered an EC50 in data set [1] of 3.6 µM. The selectivity ratio in data set [2] was above 235. Also, the Emax in data set [3] was 102%.

Turning to `Cn1cc(-c2cnc3[nH]cc(-c4cccc(C#N)c4)c3c2)cn1`, the CC50 at 48 h in data set [4] was 14.5 to 100 µM.

As to `CC(C)(O)c1cc2c(-c3ccc(C#N)cc3)nccc2[nH]1`, the Emax in data set [3] is 30.6%.

Consider `OCCn1c(CNCCCNc2nc3ccccc3[nH]2)cc2c(Cl)cc(Cl)cc21`, for which the CC50 at 48 h in data set [4] was 14.5 to 100 µM. The molecule also gave an EC50 in data set [5] of at most 1000 nM. Also, the pEC50 in data set [6] was in the range of 6.16 to 9.17.

Regarding `CC(C)=Cc1cccc2c1/C(=N/Nc1ccc(S(N)(=O)=O)cc1)C(=O)N2` [GW396574X], the CC50 at 48 h in data set [4] is 14.5 to 100 µM. In addition, the EC50 in data set [5] is at most 1000 nM. In addition, the pEC50 in data set [6] lay in the range of 6.16 to 9.17.

For `CC(C)(O)c1cc2c(-c3ccccc3CO)nccc2[nH]1`, the Emax in data set [3] worked out at 30.1%.

With `CC[C@@H]1COCCN1c1cc(-c2cc(OC)c3c(N)n[nH]c3c2)nc(N)n1`, the CC50 at 48 h in data set [4] is 14.5 to 100 µM. The molecule also had an EC50 in data set [5] of at most 1000 nM. In data set [6], this molecule showed a pEC50 of 6.16 to 9.17.

Consider `CC(C)(O)c1cc2c(-c3ccc(C(F)(F)F)cc3)nccc2[nH]1`, for which a half-maximal effect in data set [1] (EC50) was put at 40.9 µM. Also, in data set [7], the CC50 was found to be 72.3 µM. Further, the selectivity ratio in data set [2] was found to be 1.5. In data set [3], this molecule had an Emax of 102%.

The molecule `CC(C)(O)c1cc2c(-c3cc(C(F)(F)F)cc(C(F)(F)F)c3)nccc2[nH]1` yielded an EC50 in data set [1] of 24.3 µM. Also, in data set [7], the CC50 stood at 59.8 µM. Further, in data set [2], the selectivity ratio was determined as 2.5. The same molecule showed an Emax in data set [3] of 72.2%.

Regarding `CC(C)(O)c1cc2c(-c3ccc(NC(=O)OCc4ccccc4)cc3)nccc2[nH]1`, in data set [1], the midpoint of the response, the EC50, lay at 4.5 µM. Further, the CC50 in data set [7] was determined as 5.5 µM. In addition, the selectivity ratio in data set [2] was 1.22. In data set [3], this molecule came in with an Emax of 99.4%.

As for `CC(C)(O)c1cc2c(-c3ccc(F)cc3)nccc2[nH]1`, the EC50 in data set [1] worked out at 45.8 µM. In data set [7], the CC50 stood at 93.6 µM. For the same molecule, the selectivity ratio in data set [2] is 2. In data set [3], this molecule returned an Emax of 75.8%.

`CC(C)(O)c1cc2c(-c3ccc4ccccc4c3)nccc2[nH]1` gave a half-maximal effective concentration (EC50) in data set [1] of 20.1 µM. In data set [7], this molecule showed a CC50 of 22.5 µM. In addition, in data set [2], the selectivity ratio amounted to 1.1. The molecule also had an Emax in data set [3] of 102%.

In the case of `CCSc1ccc(-c2nccc3[nH]c(C(C)(C)O)cc23)cc1`, the EC50 in data set [1] turned out to be 9.6 µM. In data set [7], the CC50 was 17.2 µM. Further, in data set [2], the selectivity ratio worked out at 1.8. In data set [3], the Emax amounted to 107%.

For `CC(C)(O)c1cc2c(-c3ccccc3)nccc2[nH]1`, in data set [1], the EC50 is 6.5 µM. The CC50 in data set [7] came out at 22.2 µM. Also, the selectivity ratio in data set [2] worked out at 3.4. The molecule further displayed an Emax in data set [3] of 106%.

As to `COc1ccccc1-c1nccc2[nH]c(C(C)(C)O)cc12`, in data set [1], the EC50 came out at 53.9 µM. Moreover, in data set [2], the selectivity ratio was above 3.7. Further, the Emax in data set [3] amounted to 56.6%.

On to `CN(C)Cc1ccc(-c2cc3c(-c4cnn(C)c4)ccnc3[nH]2)cc1`, for which the CC50 at 48 h in data set [4] is 14.5 to 100 µM. In data set [5], this molecule had an EC50 of at most 1000 nM. The same molecule yielded a pEC50 in data set [6] of 6.16 to 9.17.

In the case of `CC(C)(O)c1cc2c(Cl)nccc2[nH]1`, the half-maximal effective concentration (EC50) in data set [1] amounted to 70.8 µM. In data set [7], the CC50 was determined as 15.5 µM. The selectivity ratio in data set [2] came to 0.2. The Emax in data set [3] is 106%.

For `CC(=O)c1ccc(-c2nccc3[nH]c(C(C)(C)O)cc23)cc1`, the EC50 in data set [1] was found to be 137 µM. Besides, in data set [2], the selectivity ratio is above 1.4. Moreover, the Emax in data set [3] came out at 60.9%.

In data set [1], `CC(C)(C)c1ccc(-c2nccc3[nH]c(C(C)(C)O)cc23)cc1` showed an EC50 of 17 µM. Further, the CC50 in data set [7] stood at 35.3 µM. For the same molecule, in data set [2], the selectivity ratio came out at 1.3. In data set [3], the Emax came to 110%.

With `CC(C)(O)c1cc2c(-c3ccsc3)nccc2[nH]1`, in data set [1], the EC50 was determined as 106 µM. The same molecule yielded a CC50 in data set [7] of 199 µM. The selectivity ratio in data set [2] worked out at 1.6. This molecule came in with an Emax in data set [3] of 72.8%.

In the case of `O=C(Nc1ccc(-c2ccnc3[nH]ccc23)s1)C1(Cc2ccccc2)CCCNC1` (stereo not drawn), in data set [4], the CC50 at 48 h is 14.5 to 100 µM. Besides, in data set [5], the EC50 is at most 1000 nM. Further, the pEC50 in data set [6] lay within 6.16 to 9.17.

For `Cc1ccc(-c2nccc3[nH]c(C(C)(C)O)cc23)cc1`, in data set [1], the EC50 came to 34.6 µM. The CC50 in data set [7] is 38.5 µM. For the same molecule, the selectivity ratio in data set [2] was 1.1. Also, in data set [3], the Emax was 86%.

`CC(C)(O)c1cc2c(-c3ccc(-c4ccccc4)c(F)c3)nccc2[nH]1` returned an EC50 in data set [1] of 3.8 µM. Besides, in data set [7], the CC50 is 9.1 µM. Also, the selectivity ratio in data set [2] was determined as 2.4. This molecule also came in with an Emax in data set [3] of 75.7%.

Consider `Cc1cccc(-c2nccc3[nH]c(C(C)(C)O)cc23)c1`, for which a half-maximal response in data set [1] (EC50) required 52.3 µM. In data set [7], this molecule had a CC50 of 121 µM. Further, in data set [2], the selectivity ratio worked out at 1.7. The Emax in data set [3] came out at 101%.

For `CS(=O)(=O)Nc1ccc(-c2c(-c3cccnc3)oc3ncnc(N)c23)cc1`, the CC50 at 48 h in data set [4] was 14.5 to 100 µM. The molecule also gave an EC50 in data set [5] of at most 1000 nM. This molecule also came in with a pEC50 in data set [6] of 6.16 to 9.17.

For `Cc1occc1-c1ncc(O[C@H](CN)c2ccccc2)cc1-c1c[nH]c2ncccc12`, in data set [4], the CC50 at 48 h is 14.5 to 100 µM. In data set [5], the EC50 is at most 1000 nM. Further, the pEC50 in data set [6] lay within 6.16 to 9.17.

Regarding `CN(C)Cc1ccc(-c2[nH]c3ncc(C#N)cc3c2-c2ccccc2)cc1`, in data set [4], the CC50 at 48 h was 14.5 to 100 µM. The same molecule showed an EC50 in data set [5] of at most 1000 nM. In data set [6], this molecule gave a pEC50 of 6.16 to 9.17.
